This note sets out measurements from PubChem BioAssay AID1919007 (Molecular Pharmacology Branch, DTP, NCI, 2023).

The structures appear in SMILES notation. Where “and” joins values, the source holds several entries; their conditions need not be identical. Identical values can stand only once.

For this test, the system named is A498 complex spheroids with HUVEC/MSC, growth. Nature of the test: Anticancer human tumor A498 cell line growth inhibition [AhR].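 As to all read-outs here: seven day exposure starting three days after spheroid seeding.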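 As to viability, T/C: luminescence signal used as a surrogate for viable cells; luminescence viability scaled so 100% equals DMSO vehicle wells.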 The note with it: for viability, T/C: stronger effect = lower value; for IC50: curve of compound. The source says: Multicellular complex tumor spheroid response to aryl hydrocarbon receptor antagonists in combination with a variety of drugs and investigational agents in selected tumor cell lines
The current study was undertaken to assess response to aryl hydrocarbon receptor antagonists in combination with standard-of-care drugs and investigational agents in solid tumor complex spheroid models. Complex spheroids include a stromal component modeled by human endothelial cells (HUVEC) and fibroblasts modeled by human mesenchymal stem cells (MSCs). The concentration ranges selected for each drug and investigational agent were based upon clinically achievable concentrations if the clinical Cmax of the agent was known.
Compounds. The drugs and investigational agents: BAY 2416964 (NSC825713), GNF351 (NSC835774), CH-223191 (NSC835775), CPI-455 (NSC825282), aza-TdCyd (NSC777586), decitabine (NSC127716), belinostat (NSC758774), entinostat (NSC756642), pevonedistat (NSC761192), tazemetostat (NSC777109), talazoparib (NSC765396), olaparib (NSC753686), selinexor (NSC780203), nedisertib (M3814, NSC802822), bortezomib (NSC756655), venetoclax (NSC766270), doxorubicin (NSC123127), elimusertib (BAY189344, NSC800525), ceralasertib (AZD6738, NSC777638), TAK-243 (NSC785004), alisertib (NSC759677), etoposide (NSC141540), topotecan (NSC609699), eribulin (NSC707389), gemcitabine (NSC613327), carboplatin (NSC241240), cisplatin (NSC119875), and SN-38 (NSC673596) were obtained from the National Cancer Institute (NCI) Developmental Therapeutics Program Chemical Repository (32). The FDA-approved anticancer drug set is available from the Developmental Therapeutics Program at https://dtp.cancer.gov/organization/dscb/obtaining/available plates.htm. […] The stock solutions were prepared in dimethyl sulfoxide (DMSO, Sigma-Aldrich, St. Louis, MO, cat. D2650), except for the platinum compounds which were prepared in saline (Quality Biological, Gaithersburg, MD, cat. 114-055-101), at 800-fold the tested concentration and stored at -70 degrees C prior to their use. All drugs and investigational agents were tested over a range starting from a high concentration at or near the clinical Cmax and decreasing in half-log increments. If the clinical Cmax for an agent had not been determined, the highest concentration tested was 10 microM (Table 1).
Cell Culture. All cells were maintained in an incubator at 37 degrees C and 5% CO2 with 95% humidity. The PDC lines were cultured according to standard operating procedures established by the NCI PDMR (https://pdmr.cancer.gov). Briefly, all PDCs were thawed and cultured in Matrigel-coated flasks prepared with a working solution of 1X Ham's F-12 nutrient mix, without supplementation (Invitrogen, Waltham, MA, cat. 11765054), 100 U/mL penicillin-streptomycin (Invitrogen, cat. 15140122), and 2.5% Matrigel (Corning Inc., Corning, NY, cat. 354248) for the first three passages. All PDCs were cultured in complete DMEM/F-12 media containing advanced DMEM/F-12 (Invitrogen, cat. 12634028), 4.9% defined fetal bovine serum, heat inactivated (HyClone Laboratories Inc., Logan, UT, cat. SH30070.03HI), 389 ng/mL hydrocortisone (Sigma-Aldrich, cat. H4001), 9.7 ng/mL human EGF recombinant protein (Invitrogen, cat. PHG0313), 23.4 microg/mL adenine (Sigma-Aldrich, cat. A2786), 97.3 U/mL penicillin-streptomycin (Invitrogen, cat. 15140122), 1.9 mM L-glutamine (Invitrogen, cat. 25030081), and 9.7 microM Y-27632 dihydrochloride (Tocris Bioscience, Bristol, United Kingdom, cat. 1254). The PDCs were cultured in complete DMEM/F12 media without 10 microM Y-27632 dihydrochloride for at least two passages prior to the screen. The established cell lines NCI-H1341 and […] were cultured in DMEM/F-12, HEPES (Invitrogen, cat. 11330032), 5% defined fetal bovine serum (HyClone Laboratories Inc., cat. SH30070.03), ITS premix universal culture supplement [insulin (5 microg/mL), transferrin (5 microg/mL), and selenious acid (5 ng/mL)] […]

For the compound `Cn1ncnc1C1c2n[nH]c(=O)c3cc(F)cc(c23)NC1c1ccc(F)cc1` (stereo not drawn), the IC50 is greater than 0.1 µM. In addition, the viability, T/C (compound 0.000316 µM) is 105% and 97.2% and 110%. Besides, the viability, T/C (compound 0.001 µM) was 117% and 105% and 114%. Where the note is “compound 0.00316 µM”, the viability, T/C is 109% and 102% and 103%. Where the note is “compound 0.01 µM”, the viability, T/C was 108% and 101% and 100%. Further, for the setting “compound 0.0316 µM”, the viability, T/C is 112% and 106% and 103%. Moreover, the viability, T/C (compound 0.1 µM) is 107% and 98.3% and 85.8%.

With `NS(=O)(=O)OCC1CC(n2ccc3c(NC4CCc5ccccc54)ncnc32)CC1O` (stereo not drawn), the IC50 was 0.474 µM and 0.421 µM and 0.239 µM. Where the note is “compound 0.0316 µM”, the viability, T/C was 96.3% and 93.7% and 99.8%. The viability, T/C (compound 0.1 µM) is 93.4% and 87.1% and 85.3%. The viability, T/C (compound 0.316 µM) was 56.3% and 53.1% and 37.4%. In addition, the viability, T/C (compound 1 µM) was 34.4% and 34.5% and 28.6%. Moreover, under “compound 3.16 µM”, the viability, T/C was 23.7% and 26.2% and 21.3%. Also, the viability, T/C (compound 10 µM) is 16.6% and 20% and 16.1%.

Regarding `Nc1ccccc1NC(=O)c1ccc(CNC(=O)OCc2cccnc2)cc1`, the IC50 was 1.43 µM and 1.74 µM and 1.09 µM. In addition, the viability, T/C (compound 0.0316 µM) is 83.7% and 98.2% and 88.8%. Further, for the setting “compound 0.1 µM”, the viability, T/C was 83.4% and 95.8% and 93.6%. Under “compound 0.316 µM”, the viability, T/C was 88.2% and 84.4% and 77.7%. For the setting “compound 1 µM”, the viability, T/C was 61.2% and 70.2% and 50.5%. Further, the viability, T/C (compound 3.16 µM) was 21.5% and 29.6% and 23.1%. For the same compound, where the note is “compound 10 µM”, the viability, T/C is 2.22% and 2% and 2.21%.

For `Nc1ccn(C2OC(CO)C(O)C2(F)F)c(=O)n1` (stereo not drawn), the IC50 is less than 0.0316 µM. The viability, T/C (compound 0.0316 µM) was 30.9% and 36.6% and 26.1%. Also, for the setting “compound 0.1 µM”, the viability, T/C was 35.4% and 37.9% and 25.6%. Where the note is “compound 0.316 µM”, the viability, T/C is 50.1% and 45.6% and 30.7%. For the same compound, the viability, T/C (compound 1 µM) was 43% and 49.6% and 32.6%. Moreover, the viability, T/C (compound 3.16 µM) is 40.7% and 51.3% and 33%. Besides, under “compound 10 µM”, the viability, T/C was 42.1% (2×) and 29.6%.

Take `Nc1ncn(C2CC(O)C(CO)O2)c(=O)n1` (stereo not drawn): the IC50 is greater than 1 µM. Further, where the note is “compound 0.00316 µM”, the viability, T/C was 95.4% and 108% and 105%. The viability, T/C (compound 0.01 µM) was 101% and 108% and 107%. Besides, under “compound 0.0316 µM”, the viability, T/C was 94% and 91.7% and 104%. Moreover, the viability, T/C (compound 0.1 µM) is 87.1% and 96.7% and 97.3%. For the same compound, for the setting “compound 0.316 µM”, the viability, T/C is 97.1% and 81.1% and 97.3%. For the same compound, where the note is “compound 1 µM”, the viability, T/C is 72.5% and 71.4% and 83.5%.

In the case of `Nc1ncn(C2CC(O)C(CO)S2)c(=O)n1` (stereo not drawn), the half-maximal inhibitory concentration (IC50) is greater than 0.3 µM. For the same compound, the viability, T/C (compound 0.000949 µM) is 100% and 102% and 109%. In addition, the viability, T/C (compound 0.003 µM) is 99.7% and 106% and 114%. For the same compound, the viability, T/C (compound 0.00949 µM) is 94.9% and 101% and 108%. Besides, the viability, T/C (compound 0.03 µM) is 97.8% and 105% and 96%. In addition, the viability, T/C (compound 0.0949 µM) was 79.2% and 95.2% and 85%. Where the note is “compound 0.3 µM”, the viability, T/C is 81% and 89.7% and 68.3%.

With `O=C(C=Cc1cccc(S(=O)(=O)Nc2ccccc2)c1)NO`, the IC50 is 1.87 µM and 3.1 µM and 1.18 µM. In addition, the viability, T/C (compound 0.0316 µM) was 96.9% and 99.7% and 91.8%. In addition, the viability, T/C (compound 0.1 µM) is 97.1% and 90.4% and 87.2%. The viability, T/C (compound 0.316 µM) is 77.8% and 90.1% and 67.2%. In addition, for the setting “compound 1 µM”, the viability, T/C is 56.2% and 65.4% and 52.6%. Also, the viability, T/C (compound 3.16 µM) was 45.1% and 51.9% and 33.4%. Moreover, the viability, T/C (compound 10 µM) is 16.7% and 20.2% and 6.75%.

`O=C(C=Cn1cnc(-c2cc(C(F)(F)F)cc(C(F)(F)F)c2)n1)NNc1cnccn1`: the IC50 was 0.0999 µM and 0.111 µM and 0.0728 µM. Also, where the note is “compound 0.00949 µM”, the viability, T/C was 99.2% and 101% and 90.7%. Also, the viability, T/C (compound 0.03 µM) was 94.7% and 85.9% and 72.4%. In addition, the viability, T/C (compound 0.0949 µM) is 49.8% and 49% and 42.5%. Besides, the viability, T/C (compound 0.3 µM) is 34.6% and 34.1% and 25.4%. For the same compound, for the setting “compound 0.949 µM”, the viability, T/C was 26.4% and 25% and 20.6%. Moreover, for the setting “compound 3 µM”, the viability, T/C was 23.9% and 17% and 14.4%.

Regarding `O=C(c1cc(Cc2n[nH]c(=O)c3ccccc23)ccc1F)N1CCN(C(=O)C2CC2)CC1`, the IC50 was greater than 10 µM. Also, the viability, T/C (compound 0.0316 µM) was 100% and 101% (2×). For the same compound, the viability, T/C (compound 0.1 µM) was 103% and 100% and 104%. The viability, T/C (compound 0.316 µM) was 99.4% and 99.2% and 99.5%. Besides, the viability, T/C (compound 1 µM) is 108% and 99.4% and 100%. The viability, T/C (compound 3.16 µM) is 106% and 98.4% and 101%. The viability, T/C (compound 10 µM) was 94% and 92.4% and 92.1%.
